Source: US20240409536A1, “COMPOUNDS AND METHODS FOR MODULATING SPLICING” (REMIX THERAPEUTICS INC., priority 2021, published 2024)
Like-named read-outs stand apart in the source and are kept apart here.

Key:
MYB mRNA [1] = assay: Splicing RT-qPCR assay, MYB canonical (CJ) and alternative (AJ) junction mRNA; type: cell-based; settings: Homo sapiens, A673 or K562 cells, 24 hours; for IC50: decrease in canonical junction mRNA; for AC50: increase in alternative junction mRNA
Procedure: (§1) Compounds described herein were used to modulate RNA transcript abundance in cells. The expression of a target mRNA was measured by detecting the formation of an exon-exon junction in the canonical transcript (CJ). A compound mediated exon-inclusion event was detected by observing an increase in formation of a new junction with an alternative exon (AJ). Real-time qPCR assays were used to detect these splicing switches and interrogate the potency of various compounds towards different target genes. A high-throughput real time quantitative PCR (RT-qPCR) assay was developed to measure these two isoforms of the mRNA (CJ and AJ) for exemplary genes, such as HTT, SMN2, and MYB, together with a control housekeeping gene, GAPDH or GUSB or PPIA, used for normalization. Briefly, the A673 or K562 cell line was treated with various compounds described herein (e.g., compounds of Formula (I), (I), or (III)). After treatment, the levels of the HTT, MYB, or SMN2 mRNA targets were determined from each sample of cell lysate by cDNA synthesis followed by qPCR.
(§2) • Cells-to-CT 1-step kit: ThermoFisher A25602, Cells-to-CT lysis reagent: ThermoFisher 4391851C, TaqMan™ Fast Virus 1-Step Master Mix: ThermoFisher 4444436 • GAPDH: VIC-PL, ThermoFisher 4326317E (Assay: Hs99999905_ml)—used for K562/suspension cell lines • GUSB: VIC-PL, ThermoFisher 4326320E (Assay: Hs99999908_ml)—used for K562/suspension cell lines • PPIA: VIC-PL, ThermoFisher 4326316E (Assay: Hs99999904_ml)—used for A673/adherent cell lines
(§3) The A673 cell line was cultured in DMEM with 10% FBS. Cells were diluted with full growth media and plated in a 96-well plate (15,000 cells in 100 ul media per well). The plate was incubated at 37° C. with 5% CO2 for 24 hours to allow cells to adhere. An 11-point 3-fold serial dilution of the compounds was made in DMSO then diluted in media in an intermediate plate. Compounds were transferred from the intermediate plate to the cell plate with the top dose at a final concentration of 10 uM in the well. Final DMSO concentration was kept at or below 0.25%. The cell plate was returned to the incubator at 37° C. with 5% CO2 for an additional 24 hours.
(§4) The K562 cell line was cultured in IMDM with 10% FBS. For K562, cells were diluted with full growth media and plated in either a 96-well plate (50,000 cells in 50 uL media per well) or a 384-well plate (8,000-40,000 cells in 45 uL media per well). An 11-point 3-fold serial dilution of the compounds were made in DMSO then diluted in media in an intermediate plate. Compound was transferred from the intermediate plate to the cell plate with the top dose at a final concentration of 10 uM in the well. Final DMSO concentration was kept at or below 0.25%. Final volume was 100 uL for 96-well plate and 50 uL for 384-well plate. The cell plate was then placed in an incubator at 37° C. with 5% CO2 for 24 hours.
(§5) The cells were then gently washed with 50 uL-100 uL cold PBS before proceeding to addition of lysis buffer. 30 uL-50 uL of room temperature lysis buffer with DNAse I (and optionally RNAsin) was added to each well. Cells were shaken/mixed thoroughly at room temperature for 5-10 minutes for lysis to take place and then 3 uL-5 uL of room temperature stop solution was added and wells were shaken/mixed again. After 2-5 minutes, the cell lysate plate was transferred to ice for RT-qPCR reaction setup. The lysates could also be frozen at −80° C. for later use.
(§6) In some cases, a direct lysis buffer was used. An appropriate volume of 3×lysis buffer (10 mM Tris, 150 mM NaCl, 1.5%-2.5% Igepal and 0.1-1 U/uL RNAsin, pH 7.4) was directly added to either K562 or A673 cells in media and mixed by pipetting 3 times. The plates were then incubated at room temperature with shaking/rocking for 20-50 minutes to allow for lysis to take place. After this time, the cell lysate plate was transferred to ice to set up for the RT-qPCR reactions. The lysates could also be frozen at −80° C. for later use. […]

Target C mRNA = assay: Gene panel canonical junction qPCR assay, Target C CJ mRNA decrease; type: cell-based; settings: Homo sapiens
Procedure: as §1
(§7) The data analysis was performed by first determining the ΔCt vs the housekeeper gene. This ΔCt was then normalized against the DMSO control (ΔΔCt) and converted to RQ (relative quantification) using the 2^(−ΔΔCt) equation. The RQ were then converted to a percentage response by arbitrarily setting an assay window of 3.5 and 4.0 ΔCt for HTT-CJ and MYB-CJ respectively and an assay window of 9 and 3 ΔCt for HTT-AJ and MYB-AJ in 96 well format (50,000 K562 cells/well and 15,000 A673 cells per well) and an assay window of 3 and 4 ΔCt for HTT-CJ and MYB-CJ respectively and an assay window of 5 and 3 ΔCt for HTT-AJ and MYB-AJ respectively in 384 well format (8,000 K562 cells/well example). […] The percentage response was then fitted to the 4 parametric logistic equation to evaluate the concentration dependence of compound treatment. The increase in AJ mRNA is reported as AC50 (compound concentration having […] in AJ increase) while the decrease in CJ mRNA levels is reported as IC50 (compound concentration having 50) response in CJ decrease).
(§8) Additional studies were carried out for a larger panel of genes using the protocol provided above. The junction between flanking upstream and downstream exons was used to design canonical junction qPCR assays. At least one of the forward primer, reverse primer or the CY5-labeled 5′ nuclease probe (with 3′ quencher such as ZEN/Iowa Black FQ) was designed to overlap with the exon junction to capture the CJ mRNA transcript. BLAST was used to confirm the specificity of the probeset and parameters such as melting temperature, GC content, amplicon size, and primer dimer formation are considered during their design. Data for the decrease in CJ mRNA levels for four exemplary genes (HTT, SMN2, MYB, and Target C) analyzed in this panel are reported as IC50 (compound concentration having […] in CJ decrease).
(§9) A summary of the results from the panel is illustrated in Tables 5A and 51B, wherein “A” represents an IC50 of less than 100 nM; “B” represents an IC50 of between 100 nM and 1 μM; and “C” represents an IC50 of between 1 μM and 10 μM; and “D” represents an IC50 of greater than 10 μM.

HTT mRNA [2] = assay: Gene panel canonical junction qPCR assay, HTT CJ mRNA decrease; type: cell-based, human; settings: Homo sapiens
Procedure: as §1, §7, §8, §9

MYB mRNA [3] = assay: Gene panel canonical junction qPCR assay, MYB CJ mRNA decrease; type: cell-based, human; settings: Homo sapiens
Procedure: as §1, §7, §8, §9

HTT mRNA [4] = assay: Splicing RT-qPCR assay, HTT canonical (CJ) and alternative (AJ) junction mRNA; type: cell-based; settings: Homo sapiens, A673 or K562 cells, 24 hours; for IC50: decrease in canonical junction mRNA; for AC50: increase in alternative junction mRNA
Procedure: as §1, §2, §3, §4, §5, §6

SMN2 mRNA = assay: Gene panel canonical junction qPCR assay, SMN2 CJ mRNA decrease; type: cell-based, human; settings: Homo sapiens
Procedure: as §1, §7, §8, §9

[5] = canonical junction qPCR, read-out: Target C IC50 (decrease in CJ mRNA levels)
[6] = canonical junction qPCR, read-out: HTT IC50 (decrease in CJ mRNA levels)
[7] = canonical junction qPCR, read-out: MYB IC50 (decrease in CJ mRNA levels)
[8] = canonical junction qPCR, read-out: SMN2 IC50 (decrease in CJ mRNA levels)
[9] = decrease in CJ mRNA levels, read-out: Target C IC50
[10] = decrease in CJ mRNA levels, read-out: HTT IC50
[11] = decrease in CJ mRNA levels, read-out: MYB IC50
[12] = decrease in CJ mRNA levels, read-out: SMN2 IC50

Compound | IC50 (MYB mRNA [1]) | AC50 (MYB mRNA [1]) | IC50 (Target C mRNA; [5]) | IC50 (HTT mRNA [2]; [6]) | IC50 (MYB mRNA [3]; [7]) | IC50 (HTT mRNA [4]) | AC50 (HTT mRNA [4]) | IC50 (SMN2 mRNA; [8]) | IC50 (Target C mRNA; [9]) | IC50 (HTT mRNA [2]; [10]) | IC50 (MYB mRNA [3]; [11]) | IC50 (SMN2 mRNA; [12])
Cc1cn2cc(NC(=O)c3ccc(N4CCNCC4)c4ccnnc34)nc2c(C)n1 [Compound 121] | 100 to 1000 nM | 1000 to 10000 nM | > 10000 nM | > 10000 nM | 100 to 1000 nM | > 10000 nM | > 10000 nM | 100 to 1000 nM | – | – | – | –
Cc1cn2cc(NC(=O)c3ccc(N4CC5(CN(C)C5)C4)c4ccnnc34)cc(F)c2n1 [Compound 132] | 100 to 1000 nM | 100 to 1000 nM | > 10000 nM | 1000 to 10000 nM | 100 to 1000 nM | 1000 to 10000 nM | 1000 to 10000 nM | < 100 nM | – | – | – | –
Cc1cn2cc(NC(=O)c3ccc(N4CCN[C@@H](C)C4)c4ccnnc34)cc(F)c2n1 [Compound 147] | < 100 nM | < 100 nM | 1000 to 10000 nM | 1000 to 10000 nM | < 100 nM | 1000 to 10000 nM | 1000 to 10000 nM | < 100 nM | – | – | – | –
CNC1[C@@H]2C[C@H]1N(c1ccc(C(=O)Nc3cc(F)c4nc(C)cn4c3)c3nnccc13)C2 (stereo partly drawn) [Compound 148] | 1000 to 10000 nM | 1000 to 10000 nM | 1000 to 10000 nM | 1000 to 10000 nM | 1000 to 10000 nM | 1000 to 10000 nM | 1000 to 10000 nM | 1000 to 10000 nM | – | – | – | –
CCc1cc2c(N3CCNCC3)ccc(C(=O)Nc3cc(F)c4nc(C)cn4c3)c2nn1 [Compound 185, 3-ethyl-N-{8-fluoro-2-methylimidazo[1,2-a]pyridin-6-yl}-5-(piperazin-1-yl)cinnoline-8-carboxamide] | 100 to 1000 nM | 100 to 1000 nM | > 10000 nM | > 10000 nM | 100 to 1000 nM | > 10000 nM | > 10000 nM | < 100 nM | – | – | – | –
Cc1cn2cc(NC(=O)c3ccc(N4C[C@@H](C)N[C@@H](C(C)C)C4)c4nccnc34)cc(F)c2n1 [Compound 264, N-{8-fluoro-2-methylimidazo[1,2-a]pyridin-6-yl}-8-[(3S,5R)-3-isopropyl-5-methylpiperazin-1-yl]quinoxaline-5-carboxamide 2,2,2-trifluoroacetate] | 1000 to 10000 nM | 100 to 1000 nM | > 10000 nM | > 10000 nM | 1000 to 10000 nM | > 10000 nM | > 10000 nM | < 100 nM | – | – | – | –
Cc1cn2cc(NC(=O)c3ccc(C4CCNCC4)s3)cc(F)c2n1 [Compound 647] | – | – | – | – | – | – | – | – | > 10000 nM | > 10000 nM | 1000 to 10000 nM | > 10000 nM
Cc1cn2cc(NC(=O)c3sc(C4CCNCC4)c(Cl)c3Cl)cc(F)c2n1 [Compound 648] | – | – | – | – | – | – | – | – | > 10000 nM | > 10000 nM | > 10000 nM | > 10000 nM
CC1=NC2C(F)=CC(NC(=O)c3sc(C4CCNCC4)cc3F)=CC2O1 (stereo not drawn) [Compound 657] | – | – | – | – | – | – | – | – | > 10000 nM | > 10000 nM | > 10000 nM | > 10000 nM
CC1=NC2C(F)=CC(NC(=O)c3sc(C4CCNCC4)cc3F)=CC2S1 (stereo not drawn) [Compound 658] | – | – | – | – | – | – | – | – | > 10000 nM | > 10000 nM | > 10000 nM | > 10000 nM
Cc1cn2cc(NC(=O)c3sc(N4CCNC(C)C4)c(Cl)c3Cl)cc(F)c2n1 (stereo not drawn) [Compound 659] | – | – | – | – | – | – | – | – | 1000 to 10000 nM | 100 to 1000 nM | 100 to 1000 nM | 1000 to 10000 nM
Cc1cn2cc(NC(=O)c3cc(Cl)c(N4CCNC(C)C4)s3)cc(F)c2n1 (stereo not drawn) [Compound 660] | – | – | – | – | – | – | – | – | 1000 to 10000 nM | 100 to 1000 nM | < 100 nM | 1000 to 10000 nM
COc1cc(N2CCNCC2=O)sc1C(=O)Nc1cc(F)c2nc(C)cn2c1 [Compound 662] | – | – | – | – | – | – | – | – | > 10000 nM | > 10000 nM | > 10000 nM | > 10000 nM
Cc1cn2cc(NC(=O)c3sc(C4CCNCC4)cc3Cl)cc(F)c2n1 [Compound 663] | – | – | – | – | – | – | – | – | 1000 to 10000 nM | 100 to 1000 nM | 100 to 1000 nM | > 10000 nM
Cc1cn2nc(NC(=O)c3sc(C4CCNCC4)cc3F)nc2c(C)n1 [Compound 665] | – | – | – | – | – | – | – | – | 100 to 1000 nM | < 100 nM | < 100 nM | 1000 to 10000 nM
